Measurements: the NIST ThermoML archive (doi:10.1021/je900124n)
Several values for one entry are separate records, joined by “and”; a condition that tells them apart may be missing. Identical values can stand only once.

Details: Fluid (supercritical or subcritical phases), Buoyancy - hydrostatic balance with magnetic suspension - two sinkers

CCC [propane]
Details | mass density
315 K, 774.95 kPa | 14.7169 kg/m3 and 14.7168 kg/m3
315 K, 774.96 kPa | 14.7169 kg/m3 and 14.7168 kg/m3
315 K, 1306.4 kPa | 27.9201 kg/m3 and 27.9221 kg/m3
315 K, 1306.5 kPa | 27.9244 kg/m3
315 K, 1306.6 kPa | 27.927 kg/m3 and 27.926 kg/m3
320 K, 270.24 kPa | 4.64 kg/m3 and 4.6399 kg/m3 and 4.6398 kg/m3
320 K, 476.69 kPa | 8.4338 kg/m3 and 8.4339 kg/m3
320 K, 789.41 kPa | 14.6898 kg/m3
320 K, 789.42 kPa | 14.69 kg/m3
320 K, 789.43 kPa | 14.6907 kg/m3 and 14.6901 kg/m3
320 K, 1333.7 kPa | 27.726 kg/m3
320 K, 1333.9 kPa | 27.7763 kg/m3
320 K, 1334.3 kPa | 27.7883 kg/m3
320 K, 1334.6 kPa | 27.742 kg/m3
320 K, 1335 kPa | 27.8035 kg/m3
320 K, 2017.4 kPa | 457.1 kg/m3
320 K, 2018.5 kPa | 457.104 kg/m3
320 K, 2018.7 kPa | 457.105 kg/m3
320 K, 2018.8 kPa | 457.104 kg/m3
320 K, 2019.1 kPa | 457.105 kg/m3
320 K, 2019.3 kPa | 457.11 kg/m3
320 K, 2019.4 kPa | 457.108 kg/m3
320 K, 2019.5 kPa | 457.11 kg/m3
320 K, 2019.8 kPa | 457.109 kg/m3 and 457.107 kg/m3 and 457.108 kg/m3
320 K, 2019.9 kPa | 457.109 kg/m3
320 K, 4080.8 kPa | 466.418 kg/m3
320 K, 4080.9 kPa | 466.42 kg/m3
320 K, 4081 kPa | 466.419 kg/m3
320 K, 4081.3 kPa | 466.42 kg/m3
320 K, 4081.6 kPa | 466.42 kg/m3
320 K, 8257.8 kPa | 481.065 kg/m3
320 K, 8258.1 kPa | 481.068 kg/m3
320 K, 8258.4 kPa | 481.067 kg/m3 and 481.068 kg/m3
320 K, 10347 kPa | 487.109 kg/m3 and 487.106 kg/m3 and 487.107 kg/m3
320 K, 10348 kPa | 487.113 kg/m3 and 487.107 kg/m3
320 K, 10349 kPa | 487.112 kg/m3
320 K, 12003 kPa | 491.44 kg/m3
320 K, 12004 kPa | 491.44 kg/m3 and 491.441 kg/m3
320 K, 16094 kPa | 500.965 kg/m3
320 K, 16095 kPa | 500.967 kg/m3
320 K, 16096 kPa | 500.967 kg/m3
320 K, 20063 kPa | 508.971 kg/m3 and 508.967 kg/m3 and 508.969 kg/m3
320 K, 20064 kPa | 508.969 kg/m3 and 508.971 kg/m3
320 K, 24069 kPa | 516.143 kg/m3
320 K, 24072 kPa | 516.146 kg/m3 and 516.148 kg/m3 and 516.147 kg/m3
320 K, 29981 kPa | 525.489 kg/m3
320 K, 29983 kPa | 525.494 kg/m3
320 K, 29985 kPa | 525.495 kg/m3
320 K, 29986 kPa | 525.497 kg/m3
320 K, 35299 kPa | 532.943 kg/m3
320 K, 35300 kPa | 532.945 kg/m3 and 532.943 kg/m3
320 K, 35301 kPa | 532.945 kg/m3
325 K, 803.73 kPa | 14.6629 kg/m3 and 14.6627 kg/m3 and 14.6626 kg/m3
325 K, 803.74 kPa | 14.6631 kg/m3 and 14.6629 kg/m3
325 K, 1340.6 kPa | 27.0793 kg/m3
325 K, 1340.9 kPa | 27.1015 kg/m3
325 K, 1341.2 kPa | 27.0724 kg/m3
325 K, 1341.8 kPa | 27.0948 kg/m3
330 K, 278.72 kPa | 4.6293 kg/m3 [middle of 4 runs]
330 K, 492.57 kPa | 8.4128 kg/m3 and 8.4127 kg/m3
330 K, 492.58 kPa | 8.4128 kg/m3 and 8.4127 kg/m3
330 K, 817.85 kPa | 14.6343 kg/m3
330 K, 817.86 kPa | 14.6347 kg/m3 and 14.6346 kg/m3 and 14.6343 kg/m3
330 K, 817.87 kPa | 14.6348 kg/m3
330 K, 1346.8 kPa | 26.4281 kg/m3
330 K, 1347 kPa | 26.4322 kg/m3
330 K, 1347.2 kPa | 26.4396 kg/m3
330 K, 1347.3 kPa | 26.4407 kg/m3 and 26.4409 kg/m3
330 K, 1714.5 kPa | 36.5728 kg/m3 [middle of 5 runs]
335 K, 1765.2 kPa | 36.7322 kg/m3 and 36.7333 kg/m3 and 36.7309 kg/m3
335 K, 1765.3 kPa | 36.7327 kg/m3 and 36.733 kg/m3
340 K, 287.12 kPa | 4.6188 kg/m3 and 4.6185 kg/m3
340 K, 287.13 kPa | 4.6186 kg/m3
340 K, 508.31 kPa | 8.392 kg/m3 and 8.3919 kg/m3
340 K, 508.32 kPa | 8.3921 kg/m3
340 K, 508.33 kPa | 8.3921 kg/m3
340 K, 846.05 kPa | 14.5839 kg/m3
340 K, 846.06 kPa | 14.584 kg/m3 and 14.5839 kg/m3
340 K, 846.07 kPa | 14.5839 kg/m3
340 K, 1352.2 kPa | 25.1571 kg/m3
340 K, 1352.4 kPa | 25.1613 kg/m3 and 25.1637 kg/m3
340 K, 1352.5 kPa | 25.161 kg/m3
340 K, 1352.7 kPa | 25.168 kg/m3
340 K, 1816.9 kPa | 36.9173 kg/m3
340 K, 1817.1 kPa | 36.9239 kg/m3 and 36.9243 kg/m3
340 K, 2355.2 kPa | 55.4656 kg/m3
340 K, 2355.4 kPa | 55.4825 kg/m3 and 55.4906 kg/m3
340 K, 2355.5 kPa | 55.5083 kg/m3
340 K, 2355.8 kPa | 55.4793 kg/m3
340 K, 3925.4 kPa | 425.071 kg/m3 and 425.069 kg/m3
340 K, 3925.5 kPa | 425.072 kg/m3
340 K, 3925.6 kPa | 425.073 kg/m3 and 425.071 kg/m3 and 425.072 kg/m3
340 K, 3925.7 kPa | 425.072 kg/m3 and 425.071 kg/m3
340 K, 3925.8 kPa | 425.071 kg/m3 and 425.072 kg/m3
340 K, 8053.4 kPa | 448.649 kg/m3
340 K, 8053.5 kPa | 448.65 kg/m3
340 K, 8053.6 kPa | 448.651 kg/m3
340 K, 8053.8 kPa | 448.649 kg/m3
340 K, 8054.1 kPa | 448.649 kg/m3
340 K, 12040 kPa | 464.072 kg/m3 and 464.071 kg/m3
340 K, 12041 kPa | 464.071 kg/m3
340 K, 16069 kPa | 476.246 kg/m3 and 476.247 kg/m3 and 476.248 kg/m3
340 K, 16070 kPa | 476.248 kg/m3
340 K, 19781 kPa | 485.636 kg/m3
340 K, 19783 kPa | 485.642 kg/m3 and 485.644 kg/m3
340 K, 19784 kPa | 485.647 kg/m3 [middle of 4 runs]
340 K, 19785 kPa | 485.649 kg/m3
340 K, 19943 kPa | 485.999 kg/m3
340 K, 19946 kPa | 486.007 kg/m3 and 486.009 kg/m3 and 486.006 kg/m3
340 K, 19947 kPa | 486.007 kg/m3
340 K, 23981 kPa | 494.781 kg/m3 and 494.78 kg/m3
340 K, 23982 kPa | 494.781 kg/m3
340 K, 29812 kPa | 505.708 kg/m3
340 K, 29815 kPa | 505.714 kg/m3
340 K, 29816 kPa | 505.715 kg/m3 and 505.712 kg/m3
340 K, 29817 kPa | 505.713 kg/m3
